According to PubChem BioAssay AID330 (DTP/NCI, 2004):
“And” between values parts separate entries of the source, which are not always exact repeats. Identical values can stand only once. Toxic doses and inconclusive results are not listed. Rule for the calls: active = survival T/C of 150% or more; inactive = T/C below 125% in these data.

Tested on: P388 leukemia ip, CD2F1 mice, survival T/C
Assay: NCI In Vivo Anticancer Drug Screen. Data for tumor model P388 Leukemia (intraperitoneal) in CD2F1 (CDF1) mice
Details: endpoint: median survival time, higher = longer survival
Summary of the method: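 Mice carrying the transplanted tumor received test compound or vehicle. Survival was recorded in each group, and the value is the treated-group measurement divided by that of the vehicle-treated control group.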

[1] = dose: 25.0 mg/kg/injection, schedule: Q01DX009 (ip), vehicle: saline with Tween-80
[2] = dose: 50.0 mg/kg/injection, schedule: Q01DX009 (ip), vehicle: saline with Tween-80
[3] = dose: 100.0 mg/kg/injection, schedule: Q01DX009 (ip), vehicle: saline with Tween-80

Measured: T/C

NC(CSCc1ccccc1)P(=O)(O)O (configuration not stated)
inactive: dose: 60.0 mg/kg/injection, schedule: Q01DX005 (ip), vehicle: Klucel (hydroxypropylcellulose) (HPC) 105 % of control | dose: 120.0 mg/kg/injection, schedule: Q01DX005 (ip), vehicle: Klucel (hydroxypropylcellulose) (HPC) 98 % of control | dose: 240.0 mg/kg/injection, schedule: Q01DX005 (ip), vehicle: Klucel (hydroxypropylcellulose) (HPC) 91 % of control

O=[Se]([O][Sn]([O][Se](=O)c1ccccc1)([O][Se](=O)c1ccccc1)[c]1ccccc1)c1ccccc1 (configuration not stated)
inactive: [1] 104 % of control and 96 % of control | [2] 100 % of control and 103 % of control and 118 % of control | [3] 111 % of control and 121 % of control and 96 % of control

Nc1c(Cl)cc(C(=O)O)cc1Cl
inactive: [1] 95 % of control | [2] 90 % of control | [3] 87 % of control | dose: 200.0 mg/kg/injection, schedule: Q01DX009 (ip), vehicle: saline with Tween-80 100 % of control

NC(=O)Nc1ccc(Cl)cc1[N+](=O)[O-]
inactive: dose: 37.5 mg/kg/injection, schedule: Q01DX009 (ip), vehicle: Klucel (hydroxypropylcellulose) (HPC) 99 % of control | dose: 75.0 mg/kg/injection, schedule: Q01DX009 (ip), vehicle: Klucel (hydroxypropylcellulose) (HPC) 98 % of control

O=C(O)Cc1c[nH]c2ccccc12
inactive: dose: 100.0 mg/kg/injection, schedule: Q01DX001 (ip), vehicle: saline with Tween-80 105 % of control | dose: 200.0 mg/kg/injection, schedule: Q01DX001 (ip), vehicle: saline with Tween-80 100 % of control | dose: 400.0 mg/kg/injection, schedule: Q01DX001 (ip), vehicle: saline with Tween-80 99 % of control

[N-]=[N+]=NC(=O)Nc1ccccc1F
inactive: dose: 3.75 mg/kg/injection, schedule: Q01DX005 (ip), vehicle: Klucel (hydroxypropylcellulose) (HPC) 96 % of control | dose: 7.5 mg/kg/injection, schedule: Q01DX005 (ip), vehicle: Klucel (hydroxypropylcellulose) (HPC) 90 % of control and 97 % of control | dose: 15.0 mg/kg/injection, schedule: Q01DX005 (ip), vehicle: Klucel (hydroxypropylcellulose) (HPC) 104 % of control

CN(C)c1ccc(Cc2c[nH]c3ccccc3c2=O)cc1
inactive: dose: 60.0 mg/kg/injection, schedule: Q01DX005 (ip), vehicle: saline with Tween-80 94 % of control | dose: 120.0 mg/kg/injection, schedule: Q01DX005 (ip), vehicle: saline with Tween-80 92 % of control | dose: 240.0 mg/kg/injection, schedule: Q01DX005 (ip), vehicle: saline with Tween-80 95 % of control

CC(=O)OCCSCCO
inactive: dose: 25.0 mg/kg/injection, schedule: Q01DX009 (ip), vehicle: water 94 % of control | dose: 50.0 mg/kg/injection, schedule: Q01DX009 (ip), vehicle: water 99 % of control | dose: 100.0 mg/kg/injection, schedule: Q01DX009 (ip), vehicle: water 99 % of control | dose: 200.0 mg/kg/injection, schedule: Q01DX009 (ip), vehicle: water 104 % of control | dose: 400.0 mg/kg/injection, schedule: Q01DX009 (ip), vehicle: water 99 % of control

Cc1cc(Cl)nn2cc(C(=O)O)nc12
inactive: dose: 50.0 mg/kg/injection, schedule: Q01DX001 (ip), vehicle: Klucel (hydroxypropylcellulose) (HPC) 104 % of control | dose: 100.0 mg/kg/injection, schedule: Q01DX001 (ip), vehicle: Klucel (hydroxypropylcellulose) (HPC) 96 % of control | dose: 200.0 mg/kg/injection, schedule: Q01DX001 (ip), vehicle: Klucel (hydroxypropylcellulose) (HPC) 97 % of control

C/C(=N\NC(=O)c1ccccc1N)c1ccccc1O
inactive: dose: 50.0 mg/kg/injection, schedule: Q01DX005 (ip), vehicle: Klucel (hydroxypropylcellulose) (HPC) 100 % of control | dose: 100.0 mg/kg/injection, schedule: Q01DX005 (ip), vehicle: Klucel (hydroxypropylcellulose) (HPC) 98 % of control | dose: 200.0 mg/kg/injection, schedule: Q01DX005 (ip), vehicle: Klucel (hydroxypropylcellulose) (HPC) 100 % of control
